Reference: patent publication US5776957A, “Nornicotine enantiomers for use as a treatment for dopamine related conditions and disease states” (The University of Kentucky Research Foundation, priority 1996, dated 1998)
Entries after “also recorded” stand apart in the source; their conditions may differ. Where two headings read alike, the source gives them in different places.

Legend:
[1] = drug self-administration paradigm; conditions: rats
rat striatal slices = conditions: 0.1-100 μM, 15 min exposure, Dwoskin et al., 1993, cited from earlier work
[2] = cited from earlier work
[3] = cited from earlier work; remark: listed apart in the source
[4] = tested on: nicotinic receptor sites in the brain; experiment: displacement of nicotine from nicotinic receptor sites in the brain; type: binding
[5] = rats; cited from earlier work
[6] = Amphetamine drug discrimination (substitution tests); type: in vivo, rat; conditions: for amphetamine-correct responding reached by individual rats: any dose, none of the rats reached; for amphetamine-appropriate responding (partial substitution): nicotine 0.1-1.0 mg/kg, nornicotine 1-10 mg/kg; for relative potency, nicotine vs nornicotine: partial substitution for amphetamine
Description: Rats were trained in on two-lever food-reinforced operant tasks to discriminate amphetamine (1 mg/kg) from saline. After discrimination training stabilized, test doses of amphetamine (0.0625-2.0 mg/kg), nicotine (0.1-1.0 mg/kg) or nornicotine (1-10 mg/kg) were assessed for their ability to substitute for the amphetamine training dose during brief test sessions in which food reinforcement was withheld.
Nine male Sprague-Hawley rats were obtained from Harlan Industries (Indianapolis, Ind.) and were caged individually with water continuously available. Food access was restricted in order to maintain body weights at approximately 80% of free-feeding weight. Prior to the start of the experiment, all rats received a single injection of amphetamine (1 mg.kg, IP) as part of an unrelated experiment. Apparatus Six operant chambers (ENV-001, Med Associates, St. Albans, Vt.) enclosed in a sound attenuating environment were used. Located in the bottom center of the front panel in each chamber was a 5×4.-cm opening to a recessed food tray. Two metal response levers were located on the front panel, one on each side of the food tray. The center of each lever was mounted 7.3 cm from the grid floor. A 28-Vcue light, 3 cm in diameter, was centered 6 cm above each lever. A personal computer, interfaced to the chamber with Med Associates equipment, controlled the experimental sessions and collected data.
The general procedures utilized to establish amphetamine discrimination were similar to those outlined previously (13). Briefly, rats were first given access to food pellets (45 mg sucrose pellet, Noyes Co., Lancaster, N.H.) dispensed noncontingently into the food tray with both levers present. One lever was then removed and the rat was shaped to depress the other lever for food reinforcement. Following this, rats received 15-min daily sessions in which the lever (left or right) available for food reinforcement was alternated daily. […] The start of each session was signaled by the onset of both cue lights mounted above the levers, and the termination of each session was signaled by the offset of these lights. This training phase was continued until the rat earned 20 reinforces on an FR25 schedule for two days.
Amphetamine discrimination training was conducted Monday through Friday. For this training, both levers were mounted in the chamber. Amphetamine (A; 1 mg/kg) or saline (S), was injected IP 15 min prior to the start of the session, with the order of injections being either AASS or SSAA. The left lever was designated as the amphetamine-correct lever for 4 rats, while the right lever was amphetamine -correct for 5 rats. On Monday, Wednesday and Friday, injection-appropriate responding was food-reinforcedon an FR25 schedule for the entire 15-min session. However, 2-min extinction periods were instituted at the beginning of sessions on Tuesday and Thursday (one amphetamine and one saline test per week) to assess the control of amphetamine (or saline) over responding. […] During the remaining 13 min of these sessions, contingent reinforcement for injection-appropriate responding was reinstated. This phase of training was continued until the rat completed the first FR25 on the correct lever for 10 consecutive sessions and also completed 80% or more responses on the injection-appropriate lever during 4 consecutive extinction periods.
The substitution phase was identical to the previously described amphetamine discrimination phase, except for the Friday session, which was decreased to a 4-min extinction session with no food available.

[7] = hemodynamic function in conscious animals; type: in vivo; conditions: behaviorally active doses
[8] = tested on: mouse striatal synaptosomes; conditions: Grady et al., cited from earlier work
[9] = tested on: rat and mouse striatal synaptosomes; conditions: Rapier, El-Bizri, Rowell; cited from earlier work

c1cncc([C@@H]2CCCN2)c1 [S(-) nornicotine, S-(-) nornicotine]
self-administration / substitution for amphetamine ([1]; listed as S-(-)-nornicotine): self-administered; also recorded: substitutes for amphetamine self administration
self-administration / substitution for amphetamine ([1]; listed as norNIC): reinforcing
endogenous DA release (rat striatal slices): concentration-dependent and Ca+-dependent increase
endogenous DA release (rat striatal slices; listed as S(-) enantiomer of norNIC): concentration-dependent and Ca^++ -dependent increase
potency relative to nicotine ([2]; behavioral sensitization): less potent than nicotine
detection in urine of human smokers [3]: detectable in the urine of human smokers
displacement of nicotine from nicotinic receptor sites [4]: cause displacement of nicotine
substitution for nicotine in drug discrimination [5]: substitutes fully for nicotine
total number of lever presses ([6]; 15 min): significant decreases in total number of lever presses
plateau of dose-effect curve, amphetamine-appropriate responding ([6]; 45 min): 50
total number of lever presses ([6]; 45 min): significant decrease in total number of lever presses
amphetamine-correct responding reached by individual rats [6]: < 80%
amphetamine-appropriate responding (partial substitution) [6]: approximately 50%
amphetamine-appropriate responding ([6]; nornicotine 3 mg/kg, 15 min): Approximately 50%
amphetamine-appropriate responding (maximum) ([6]; nornicotine 10 mg/kg, 45 min): approximately 50%
amphetamine-correct responses, individual rats ([6]; nornicotine 10 mg/kg, 45 min): 33-61%
relative potency, nicotine vs nornicotine [6]: less potent than nicotine
behavioral profile in drug discrimination ([6]; rat, in vivo): behavioral profile similar to nicotine
effect on hemodynamic function [7]: no adverse effective on hemodynamic function

CN1CCC[C@H]1c1cccnc1 [S(-) nicotine]
self-administration / substitution for amphetamine [1]: responding was established and maintained
cross-sensitization between nicotine and amphetamine [2]: has not been observed
EC50 ([8]; 1992, read-out: EC50 for NIC-stimulated, MEC-sensitive [3H]overflow): 480 nM
EC50 ([8]; 1994, 0.1-30 μM, 10 min exposure, read-out: EC50, peak DA release): 330 nM
total number of lever presses ([6]; 15 min): significant decreases in total number of lever presses
plateau of dose-effect curve, amphetamine-appropriate responding ([6]; 45 min): 50
total number of lever presses ([6]; 45 min): significant decrease in total number of lever presses
amphetamine-correct responding reached by individual rats [6]: < 80%
amphetamine-appropriate responding ([6]; nicotine 1 mg/kg, 15 min): Approximately 50%
amphetamine-appropriate responding (maximum) ([6]; nicotine 1 mg/kg, 45 min): approximately 50%
amphetamine-correct responses, individual rats ([6]; nicotine 1 mg/kg, 45 min): 31-59%
amphetamine-appropriate responding (partial substitution) [6]: approximately 50%
relative potency, nicotine vs nornicotine [6]: more potent than nornicotine
plateau concentration of concentration-response curve [9]: 1 to 100 µM
